US8173689B2 (Novartis AG, priority 2006, dated 2012)
Read-outs that look alike come from different tables or passages of the source.

How the values were obtained:
[1] = tested on: MNFS60 (murine AML cells); assay: Cell viability assay in MCSF dependent MNFS60 cells (Cell Titer Glo); format: cell-based; conditions: tested at about 1 μM; for inhibition at 1 µM: Mus musculus, read-out: M-NFS-60 CP percent inhibition
Outline: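 3-fold DMSO dilution series (500× stocks); MCSF 10 ng/ml final; 72 hrs, 37° C., 5% CO2; CellTiter-Glo read-out; n=3; EC50 fitted.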

[2] = target: T1, full-length human CSF-1R receptor (Homo sapiens, UniProt P07333); assay: In vitro inhibition of CSF-1R receptor tyrosine phosphorylation in transfected HEK293H cells stimulated with MCSF; format: cell-based; conditions: tested at about 1 μM; for inhibition at 1 µM: HEK293-H, read-out: pCSF1R percent inhibition
T1 construct: transfected with the full-length human CSF-1R receptor cloned in house; expressed in transfected cells; host or cells: HEK293H (Invitrogen Cat. #11631017)
T1 sequence (P07333 20-972): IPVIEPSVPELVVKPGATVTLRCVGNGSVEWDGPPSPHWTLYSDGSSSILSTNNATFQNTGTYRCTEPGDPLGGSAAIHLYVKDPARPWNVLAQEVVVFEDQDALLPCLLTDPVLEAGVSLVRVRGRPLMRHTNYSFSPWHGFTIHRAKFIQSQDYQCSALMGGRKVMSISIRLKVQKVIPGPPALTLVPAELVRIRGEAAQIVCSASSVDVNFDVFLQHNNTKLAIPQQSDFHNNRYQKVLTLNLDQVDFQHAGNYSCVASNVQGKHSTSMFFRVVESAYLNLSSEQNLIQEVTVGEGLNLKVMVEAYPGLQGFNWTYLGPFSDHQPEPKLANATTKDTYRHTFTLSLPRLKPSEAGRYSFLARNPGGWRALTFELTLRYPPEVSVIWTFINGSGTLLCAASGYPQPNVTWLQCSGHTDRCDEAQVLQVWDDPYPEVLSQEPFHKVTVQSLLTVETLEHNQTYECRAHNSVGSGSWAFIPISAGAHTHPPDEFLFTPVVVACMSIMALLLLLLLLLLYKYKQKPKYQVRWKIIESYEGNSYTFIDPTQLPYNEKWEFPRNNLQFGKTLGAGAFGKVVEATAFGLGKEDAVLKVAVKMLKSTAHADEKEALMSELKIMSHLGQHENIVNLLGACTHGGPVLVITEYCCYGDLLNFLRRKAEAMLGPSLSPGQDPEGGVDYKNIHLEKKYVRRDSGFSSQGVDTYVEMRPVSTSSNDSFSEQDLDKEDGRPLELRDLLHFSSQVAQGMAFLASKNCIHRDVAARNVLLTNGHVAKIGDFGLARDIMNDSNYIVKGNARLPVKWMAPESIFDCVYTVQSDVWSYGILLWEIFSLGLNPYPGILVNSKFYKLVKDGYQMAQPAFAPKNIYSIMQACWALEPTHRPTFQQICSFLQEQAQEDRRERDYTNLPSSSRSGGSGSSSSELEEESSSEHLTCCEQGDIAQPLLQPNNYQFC
Experimental: The lysate was then transferred to total CSF-1R antibody coated 96-well plates that had already been blocked with 3% Blocker A from Mesoscale discovery (MSD) for 2 hours and washed afterwards. Lysates were incubated overnight at 4° C. and the plates were then washed 4× with MSD Tris Wash Buffer. […] The plates were read on the Sector 6000 instrument (MSD). Raw data was imported in Abase and EC50s calculated with XL-fit data analysis software.

[3] = target: T2, kinase domain of cKIT (Homo sapiens, UniProt P10721); assay: Inhibition of cKIT kinase signaling in an in vitro biochemical assay (alphascreen); conditions: tested at about 1 μM; for inhibition at 1 µM: read-out: cKit percent inhibition
T2 construct: The kinase domain of cKIT was assayed in 50 mM Hepes; purchased Upstate 14-559
T2 sequence (P10721 589-937 limits assumed): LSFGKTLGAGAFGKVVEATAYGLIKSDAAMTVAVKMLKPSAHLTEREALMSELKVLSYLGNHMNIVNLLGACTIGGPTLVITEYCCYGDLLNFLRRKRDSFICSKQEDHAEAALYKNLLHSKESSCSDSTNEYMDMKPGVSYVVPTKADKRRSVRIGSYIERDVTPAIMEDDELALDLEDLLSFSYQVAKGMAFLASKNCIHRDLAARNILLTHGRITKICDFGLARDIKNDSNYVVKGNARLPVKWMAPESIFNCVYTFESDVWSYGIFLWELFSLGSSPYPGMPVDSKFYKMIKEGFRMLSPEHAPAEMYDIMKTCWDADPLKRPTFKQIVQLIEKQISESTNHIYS

[4] = target: T3, cytoplasmic domain of the human CSF-1R (Homo sapiens, UniProt P07333); assay: In vitro kinase assay for colony stimulating factor-1 receptor (AlphaScreen); format: biochemical; conditions: tested at about 1 μM; for inhibition at 1 µM: read-out: CSF-1R percent inhibition
T3 construct: Recombinant protein corresponding to the cytoplasmic domain of the human CSF-1R; purchased Invitrogen Corporation, Carlsbad, Calif; PV3249
T3 sequence (P07333 539-972 limits assumed): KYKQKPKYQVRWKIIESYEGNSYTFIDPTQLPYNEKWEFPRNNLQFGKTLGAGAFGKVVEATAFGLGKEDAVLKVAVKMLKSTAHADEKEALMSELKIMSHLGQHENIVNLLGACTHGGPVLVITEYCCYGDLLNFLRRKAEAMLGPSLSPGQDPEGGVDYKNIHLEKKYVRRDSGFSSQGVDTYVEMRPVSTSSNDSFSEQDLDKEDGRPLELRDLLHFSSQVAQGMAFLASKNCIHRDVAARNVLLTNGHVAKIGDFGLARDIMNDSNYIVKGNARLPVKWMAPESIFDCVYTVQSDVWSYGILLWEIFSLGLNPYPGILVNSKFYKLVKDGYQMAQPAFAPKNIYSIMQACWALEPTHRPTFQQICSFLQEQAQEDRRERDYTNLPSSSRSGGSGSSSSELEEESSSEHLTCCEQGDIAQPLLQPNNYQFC
Outline: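 At a low ATP level of 1 μM, phosphate transfer by the cytoplasmic-domain kinase (4 nM) was quantified with an AlphaScreen anti-phosphotyrosine bead pair.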

[5] = target: T4, kinase domain of PDGFRβ (Homo sapiens, UniProt P09619); assay: Inhibition of PDGFRb kinase signaling in an in vitro biochemical assay (alphascreen); conditions: tested at about 1 μM; for inhibition at 1 µM: read-out: PDGFRβ percent inhibition
T4 construct: The kinase domain of PDGFRβ was assayed in 50 mM Hepes; purchased Invitrogen P3082
T4 sequence (P09619 600-962 limits assumed): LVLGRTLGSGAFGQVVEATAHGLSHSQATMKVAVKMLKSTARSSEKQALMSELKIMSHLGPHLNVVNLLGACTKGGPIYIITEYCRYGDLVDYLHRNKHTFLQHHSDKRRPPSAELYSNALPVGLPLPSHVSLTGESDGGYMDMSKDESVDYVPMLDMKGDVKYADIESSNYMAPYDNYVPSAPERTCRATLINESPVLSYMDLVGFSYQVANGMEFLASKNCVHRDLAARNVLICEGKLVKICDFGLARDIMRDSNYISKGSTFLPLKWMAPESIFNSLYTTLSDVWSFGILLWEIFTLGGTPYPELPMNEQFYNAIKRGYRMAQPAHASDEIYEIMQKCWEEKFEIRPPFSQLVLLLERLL

For CNC(=O)c1cc(Oc2ccc3nc(NCc4cc(F)ccc4F)oc3c2)ccn1 [Compound 33, 4-[2-(2,5-Difluoro-benzylamino)-benzooxazol-6-yloxy]-pyridine-2-carboxylic acid methylamide], the inhibition at 1 µM ([1]; MNFS60 cells) was 35%, the inhibition at 1 µM ([1]; compounds of Table 4) was 100% and the inhibition at 1 µM ([2]; HEK293H cells) was 83%. It also gave an inhibition at 1 µM ([2]; compounds of Table 4) of 98%, an inhibition at 1 µM ([3]; compounds of Table 4) of 65% and an inhibition at 1 µM ([4]; compounds of Table 4) of 100%. The inhibition at 1 µM [4] was 98%, the inhibition at 1 µM ([5]; compounds of Table 4) was 0% and the inhibition at 1 µM [5] was 35%.

CNC(=O)c1cc(Oc2ccc3nc(NCc4c(OC)cccc4OC)oc3c2)ccn1 [Compound 84, 4-[2-(2,6-Dimethoxy-benzyl-amino)-benzooxazol-6-yloxy]-pyridine-2-carboxylic acid methylamide] gave an inhibition at 1 µM ([1]; MNFS60 cells) of 32%, an inhibition at 1 µM ([2]; HEK293H cells) of 44% and an inhibition at 1 µM [3] of 12%. The inhibition at 1 µM [4] was 99% and the inhibition at 1 µM [5] was 0%.

Work on CNC(=O)c1cc(Oc2ccc3nc(NCc4ccccn4)sc3c2)ccn1 [Compound 150, 4-{2-[(Pyridin-2-ylmethyl)-amino]-benzothiazol-6-yloxy}-pyridine-2-carboxylic acid methylamide] yielded an inhibition at 1 µM ([1]; MNFS60 cells) of 49%, an inhibition at 1 µM ([2]; HEK293H cells) of 87% and an inhibition at 1 µM [3] of 34%. It also gave an inhibition at 1 µM [4] of 99% and an inhibition at 1 µM [5] of 1%.

CCCn1cc(-c2cc(Oc3ccc4nc(N[C@@H](C)C5CCCCC5)sc4c3)ccn2)cn1 [Example 273, (S)-N-(1-cyclohexylethyl)-6-(2-(1-propyl-1H-pyrazol-4-yl)pyridin-4-yloxy)benzo[d]thiazol-2-amine] was tested, and the inhibition at 1 µM ([1]; compounds of Table 3) was 95%, the inhibition at 1 µM ([2]; compounds of Table 3) was 88% and the inhibition at 1 µM ([3]; compounds of Table 3) was 41%. It also gave an inhibition at 1 µM ([4]; compounds of Table 3) of 100% and an inhibition at 1 µM ([5]; compounds of Table 3) of 14%.

O[C@@H]1CCCC[C@H]1Nc1nc2ccc(Oc3ccnc(-c4ccnc(N5CCOCC5)c4F)c3)cc2s1 [Cmpd 172, (1R,2R)-2-(6-(3'-fluoro-2'-morpholino-2,4'-bipyridin-4-yloxy)benzo[d]thiazol-2-ylamino)cyclohexanol] gave an inhibition at 1 µM ([1]; compounds of Table 3) of 100%, an inhibition at 1 µM ([2]; compounds of Table 3) of 97% and an inhibition at 1 µM ([3]; compounds of Table 3) of 22%. The inhibition at 1 µM ([4]; compounds of Table 3) was 100% and the inhibition at 1 µM ([5]; compounds of Table 3) was 18%.

For CNC(=O)c1cc(Oc2ccc3nc(NCc4ccccc4OC)oc3c2)ccn1 [Compound 17, 4-[2-(2-Methoxy-benzylamino)-benzooxazol-6-yloxy]-pyridine-2-carboxylic acid methylamide], the inhibition at 1 µM ([1]; MNFS60 cells) was 81%, the inhibition at 1 µM ([2]; HEK293H cells) was 94% and the inhibition at 1 µM [3] was 85%. It also gave an inhibition at 1 µM [4] of 100% and an inhibition at 1 µM [5] of 10%.

c1cc(Oc2ccc3nc(NCC4CCCCC4)sc3c2)cc(-c2cn[nH]c2)n1 [Example 341, 6-(2-(1H-pyrazol-4-yl)pyridin-4-yloxy)-N-(cyclohexylmethyl)benzo[d] thiazol-2-amine] showed an inhibition at 1 µM ([1]; MCSF dependent MNFS60 cells) of 99%, an inhibition at 1 µM ([2]; HEK293H cells) of 96% and an inhibition at 1 µM [3] of 99%. For the same compound, the inhibition at 1 µM [4] was 100% and the inhibition at 1 µM [5] was 88%.

For “4-[2-(2-Chloro- benzylamino)-benzooxazol- 6-yloxy]-pyridin-2- carboxylic acid methylamide [Compound 8]”, the “M-NFS-60 CP percent inhibition” value ([1]; compounds of Table 4) was 100%, the pCSF1R percent inhibition ([2]; compounds of Table 4) was 98% and the cKit percent inhibition ([3]; compounds of Table 4) was 25%. The CSF-1R percent inhibition ([4]; compounds of Table 4) was 100% and the PDGFRβ percent inhibition ([5]; compounds of Table 4) was 35%.

O[C@@H]1CCCC[C@H]1Nc1nc2ccc(Oc3ccnc(-c4ccncc4)c3)cc2s1 [Example 280, (1R,2R)-2-(6-(2,4'-bipyridin-4-yloxy)benzo[d]thiazol-2-ylamino)cyclohexanol] gave an inhibition at 1 µM ([1]; compounds of Table 3) of 100%, an inhibition at 1 µM ([2]; compounds of Table 3) of 65% and an inhibition at 1 µM ([3]; compounds of Table 3) of 11%. It also gave an inhibition at 1 µM ([4]; compounds of Table 3) of 100% and an inhibition at 1 µM ([5]; compounds of Table 3) of 22%.

With CNC(=O)c1cc(Oc2ccc3nc(NCc4cc(F)ccc4F)sc3c2)ccn1 [Compound 139, 4-[2-(2,5-Difluoro-benzylamino)-benzothiazol-6-yloxy]-pyridine-2-carboxylic acid methylamide] the inhibition at 1 µM ([1]; MNFS60 cells) was 48%, the inhibition at 1 µM ([2]; HEK293H cells) was 94% and the inhibition at 1 µM [3] was 21%. The inhibition at 1 µM [4] was 100% and the inhibition at 1 µM [5] was 0%.

For CNC(=O)c1cc(Oc2ccc3nc(NCC4CCCCCC4)sc3c2)ccn1 [Compound 148, 4-[2-(Cycloheptylmethyl-amino)-benzothiazol-6-yloxy]-pyridine-2-carboxylic acid methylamide], the inhibition at 1 µM ([1]; MNFS60 cells) was 100%, the inhibition at 1 µM ([2]; HEK293H cells) was 98% and the inhibition at 1 µM [3] was 99%. The inhibition at 1 µM [4] was 99% and the inhibition at 1 µM [5] was 100%.

With O[C@@H]1CCCC[C@H]1Nc1nc2ccc(Oc3ccnc(-c4ccc(F)nc4)c3)cc2s1 [Cmpd 173, (1R,2R)-2-(6-(6'-fluoro-2,3'-bipyridin-4-yloxy)benzo[d]thiazol-2-ylamino)cyclohexanol] the inhibition at 1 µM ([1]; compounds of Table 3) was 52%, the inhibition at 1 µM ([2]; compounds of Table 3) was 81% and the inhibition at 1 µM ([3]; compounds of Table 3) was 18%. It also gave an inhibition at 1 µM ([4]; compounds of Table 3) of 100% and an inhibition at 1 µM ([5]; compounds of Table 3) of 8%.

O[C@@H]1CCCC[C@H]1Nc1nc2ccc(Oc3ccnc(-c4cnn(CCF)c4)c3)cc2s1 [Example 259, (1R,2R)-2-(6-(2-(1-(2-fluoroethyl)-1H-pyrazol-4-yl)pyridin-4-yloxy)benzo[d]thiazol-2-ylamino)cyclohexanol] was tested, and the inhibition at 1 µM ([1]; compounds of Table 3) was 100%, the inhibition at 1 µM ([2]; compounds of Table 3) was 98% and the inhibition at 1 µM ([3]; compounds of Table 3) was 24%. The inhibition at 1 µM ([4]; compounds of Table 3) was 100% and the inhibition at 1 µM ([5]; compounds of Table 3) was 6%.

CNC(=O)c1cc(Oc2ccc3nc(NCCc4ccccc4Cl)sc3c2)ccn1 [Example 319, 4-(2-(2-chlorophenylethylamino)benzo[d]thiazol-6-yloxy)-N-methylpicolinamide] was tested, and the inhibition at 1 µM ([1]; MCSF dependent MNFS60 cells) was 61%, the inhibition at 1 µM ([2]; HEK293H cells) was 91% and the inhibition at 1 µM [3] was 93%. It also gave an inhibition at 1 µM [4] of 100% and an inhibition at 1 µM [5] of 24%.

Compound CNC(=O)c1cc(Oc2ccc3nc(NCCc4ccncc4)sc3c2)ccn1 [Example 316, N-methyl-4-(2-(2-(pyridin-4-yl)ethylamino)benzo[d]thiazol-6-yloxy)picolinamide] has an inhibition at 1 µM ([1]; MCSF dependent MNFS60 cells) of 41%, an inhibition at 1 µM ([2]; HEK293H cells) of 98% and an inhibition at 1 µM [3] of 8%. It also gave an inhibition at 1 µM [4] of 99% and an inhibition at 1 µM [5] of 12%.

CNC(=O)c1cc(Oc2ccc3nc(N[C@H]4c5ccccc5C[C@H]4O)sc3c2)ccn1 [Example 321, 4-(2-((1S,2R)-2-hydroxy-2,3-dihydro-1H-inden-1-ylamino)benzo[d]thiazol-6-yloxy)-N-methylpicolinamide] was tested, and the inhibition at 1 µM ([1]; MCSF dependent MNFS60 cells) was 82%, the inhibition at 1 µM ([2]; HEK293H cells) was 97% and the inhibition at 1 µM [3] was 52%. For the same compound, the inhibition at 1 µM [4] was 100% and the inhibition at 1 µM [5] was 41%.

Work on CC(C)C[C@H](CO)Nc1nc2ccc(Oc3ccnc(-c4cnn(C)c4)c3)cc2s1 [Example 355, (R)-4-methyl-2-(6-(2-(1-methyl-1H-pyrazol-4-yl)pyridin-4-yloxy)benzo[d]thiazol-2-ylamino)pentan-1-ol] yielded an inhibition at 1 µM ([1]; MCSF dependent MNFS60 cells) of 100%, an inhibition at 1 µM ([2]; HEK293H cells) of 99% and an inhibition at 1 µM [3] of 27%. For the same compound, the inhibition at 1 µM [4] was 100% and the inhibition at 1 µM [5] was 27%.

For CNC(=O)c1cc(Oc2ccc3nc(N[C@H](CO)C4CCCCC4)oc3c2)ccn1 [Compound 66, 4-[2-((S)-1-Cyclohexyl-02-hydroxy-ethylamino)-benzo-oxazol-6-yloxy]-pyridine-2-carboxylic acid methylamide], the inhibition at 1 µM ([1]; MNFS60 cells) was 18%, the inhibition at 1 µM ([2]; HEK293H cells) was 37% and the inhibition at 1 µM [3] was 55%. For the same compound, the inhibition at 1 µM [4] was 100% and the inhibition at 1 µM [5] was 37%.
